Each structure is given as a SMILES string.

A short description of data set [1]: Stability of unprotected chlorpyrifos to UV/visible light. In kind it is physicochemical. Conditions: 68 hours. The protocol: Unprotected chlorpyrifos was irradiated by an ultraviolet/visible light lamp for 68 hours. The stability versus the wavelength of the light is summarized as follows: […]
In another data set the test system is rats. The settings on record: technical chlorpyrifos; cited from earlier work.
Data set [2] has as its system honey bees. The settings on record: technical chlorpyrifos, comparison value; cited from earlier work.
Data set [3] concerns honey bees. Conditions: technical chlorpyrifos, comparison value; cited from earlier work. This is another data set of the same source.
A further data set relates to mice. Conditions: technical material; cited from earlier work.
Data set [4] is described as follows: Stability of endosulfan to irradiation. In kind it is physicochemical. The settings on record: 100 hours at 310±5 nanometers and 475± nanometers. The text has this:
Details of the stability of chlorpyrifos are listed in Example 2.

As for `CCOP(=S)(OCC)Oc1nc(Cl)c(Cl)cc1Cl` [chlorpyrifos, O,O-diethyl-O-(3,5,6-trichloro-2-pyridyl)-phosphorathio-ate], the “Extent of Degradation” value in data set [1] (313 ± 5 nm) is “Total degradation”; in data set [1] (365 ± 5 nm) it was “Low degradation”; in data set [1] (404 ± 5 nm), “Low degradation”; in data set [1] (436 ± 5 nm), “Medium degradation”. Moreover, in the data set on rats, the “LD50 (acute oral)” value is recorded as 168 mg/kg. Further, the LD50 contact in the data set on honey bees [2] is recorded as 0.059 μ/bee. Further, the LD50 oral in the data set with honey bees [3] was 0.25 μg/bee.
Regarding `O=S1OCC2C(CO1)C1(Cl)C(Cl)=C(Cl)C2(Cl)C1(Cl)Cl` (stereo not drawn) [endosulfan, 6,7,8,9,10-hexachloro-1,5-5a,9a tetryhydro-6,9-methano-2,4,3-benzodioxathipia-3-oxide], in the data set with mice, the LD50 is on record as 30 mg/kg. For the same compound, the decomposition after irradiation entry in data set [4] is “decomposed”.
